Assay results published in patent US4684625A, “Method for enhancing the anti-infective activity of muramyldipeptide derivatives” (Syntex (U.S.A.) Inc., priority 1985, dated 1987).
Values joined by “and” are separate entries in the source; they are usually repeats but may differ in a detail not shown here. Equal values may be shown once.

How the values were obtained:
Candida albicans [1] = assay: Survival of mice given a single abu-MDP treatment 72 hr prior to challenge with Candida albicans (Example 2, Table II); format: in vivo; details: one treatment at day 3 before infection
Experimental: (§1) Mice were injected intravenously with liposomes (4 micromoles phospholipid)and also with free abu-MDP (2-4 mg/kg). The abu-MDP was injected at the same time as the liposome injection. Injections were made at 96 and 48 hr prior to challenge with Candida albicans (5×10^6 cells injected intravenously). Control mice were treated with either liposomes only, or abu-MDP only (4 or 60 mg/kg), or abu-MDP (2-4 mg/kg) encapsulated in liposomes, and similarly challenged with Candida albicans. Each treatment group contained 20 mice. All mice were monitored daily for number of survivors. Statistical analysis of survival time was computed using Mann Whitney U probability analysis, and the numbers of survivors were statistically compared using Fisher Exact probability analysis.
A second experiment was performed by the method described in Example 1, except that the mice were given a single pre-infection treatment at 72 hr prior to challenge, instead of treatments at 96 and 48 hr prior to challenge as in Example 1.

Candida albicans [2] = assay: Survival of mice treated with abu-MDP at 96 and 48 hr prior to challenge with Candida albicans (Example 1, Table I); format: in vivo; details: for Survival No. (%) / Survival Time: no MLV, days 4 and 2 before infection; for Survival No. (%): third set of rows (saline control 0%); for Survival Time: third set of rows (saline control 3.6 days)
Experimental: Multilamellar vesicles (MLVs) were formed by drying down egg phosphatidylcholine and brain phosphatidylserine (7:3 molar ratio) on the inside of a flask. Phosphate-buffered saline lacking divalent cations (PBS) was added (1 ml per 20 micromoles phospholipid), and the flask shaken, either by hand or with a mechanical shaker, until the lipid film was dispersed. When N-acetylmuramyl-L-α-aminobutyryl-D-isoglutamine (abu-MDP) was to be encapsulated, it was included in the aqueous solution before addition to the lipid film. The vesicles formed as the result of shaking the aqueous solution which contained MDP derivative were washed to remove unencapsulated MDP derivative, pelleted by centrifugation at 30,000×g for 20-30 min, and then resuspended in PBS. MLV preparations made without MDP derivative were either pelleted and resuspended as described, or were used without further treatment.
as §1
P values, calculated for survival time and number of survivors at the time when controls (treated only with MLV or with saline) first reached 100% dead, were all less than 0.03. By comparison, the treatments with the same concentration of abu-MDP alone were ineffective (P≥0.05).

[3] = Radioactivity of 3H-desMDP in liposome fraction and aqueous supernatant after mixing with pre-formed MLVs (Example 3, Table III); format: physicochemical
Experimental: MLVs were prepared as described above, hydrating the dried lipid film with PBS. These pre-formed liposomes were then mixed with unencapsulated MDP compound spiked with tritiated N-acetyldesmethylmuramyl-L-alanyl-D-isoglutamine (^3 H-desMDP). The liposome/MDP derivative mixture was washed and pelleted, and the final liposome pellet resuspended in PBS. The radioactivity in the liposome fraction was determined, as well as the radioactivity in the aqueous supernatant from the washing and pelleting steps. […] Thus, MDP compounds are not incorporated into or attached to liposomes in the practice of the invention.

Substance	Survival No. (%) (Candida albicans [1]; abu-MDP 4 mg/kg)	Survival Time (Candida albicans [1]; abu-MDP 4 mg/kg) [days]	Survival No. (%) (Candida albicans [1]; free abu-MDP 60 mg/kg)	Survival Time (Candida albicans [1]; free abu-MDP 60 mg/kg) [days]	protective activity against Candida albicans (Candida albicans [2]; abu-MDP alone at the same concentration as used with MLV (P≥0.05))	Survival No. (%) (Candida albicans [2]; free abu-MDP 4 mg/kg)	Survival Time (Candida albicans [2]; free abu-MDP 4 mg/kg) [days]	Survival No. (%) (Candida albicans [2]; free abu-MDP 60 mg/kg)	Survival Time (Candida albicans [2]; free abu-MDP 60 mg/kg) [days]	protective activity against Candida albicans (Candida albicans [2]; free abu-MDP alone raised to 60 mg/kg)	cpm/0.1 ml ([3]; aqueous fraction (supernatant from washing and pelleting))	% of Total ([3]; aqueous fraction (supernatant)) [%]	% of Total ([3]; liposome fraction) [%]	cpm/0.1 ml ([3]; liposome fraction (final pellet resuspended in PBS))
N-acetylmuramyl-L-α-aminobutyryl-D-isoglutamine [abu-MDP]	0	5.2	32	6.4	ineffective	0	4.4	45	6.9	protective activity obtained equivalent to that seen using the lower dose of abu-MDP (2-4 mg/kg) plus MLV	–	–	–	–
tritiated N-acetyldesmethylmuramyl-L-alanyl-D-isoglutamine [^3 H-desMDP]	–	–	–	–	–	–	–	–	–	–	557,610 cpm/0.1 ml and 562,800 cpm/0.1 ml	~100	0.2	1,462 cpm/0.1 ml and 1,304 cpm/0.1 ml
